From article PMC11636681, “Pharmacokinetics and pharmacodynamics of antibacterial peptide NZX in Staphylococcus aureus mastitis mouse model” (Applied Microbiology and Biotechnology, 2024)
Positions of bridges follow the written chain, without caps; N, C: chain ends. Residues, ends and D or L forms follow the SMILES beside them.

Legend:
[1] = test system: S. aureus ATCC 25923; test: Mutant prevention concentration (MPC) on MHA plates; format: cell-based, Staphylococcus aureus; conditions: 1 × 10^10 CFU/mL, 37 °C, 72 h, each concentration three times
Procedure: (§1) Minimal Inhibitory Concentration (MIC), Minimal Bactericidal Concentration (MBC) and Mutant Prevention Concentration (MPC).
(§2) MPCs of NZX against the test S. aureus strain were determined as described by Plowgian et al., with some modification (Plowgian et al. [2019]). In brief, S. aureus cells were cultured to mid-log phase in Mueller–Hinton broth (MHB) medium. Then the suspensions were centrifuged (4000 rpm for 5 min) and the pellets were collected and diluted to a final concentration of 1 × 10^10 CFU/mL with MHB. […] All plates were incubated at 37 ^∘C for 72 h and the concentration corresponding to the plate with no bacterial growth was regarded as the provisional mutant prevention concentration (MPCpr). […] Lincomycin and ceftiofur were set as antibiotic controls, respectively. Each concentration was conducted three times.

[2] = test system: S. aureus E48; test: as above; format: cell-based, Staphylococcus aureus; conditions: 1 × 10^10 CFU/mL, 37 °C, 72 h, each concentration three times
Procedure: as §1, §2

[3] = test system: S. aureus ATCC 25923; test: Post antibiotic effect (PAE); format: cell-based, Staphylococcus aureus; conditions: 2 h exposure at 1 × to 8 × MIC, 1 × 10^8 CFU/mL, triplicate
Procedure: (§3) PAE was performed based on the method of Zhang et al. (Zhang et al. [2014]). S. aureus E48, S. aureus ATCC 25923 and S. aureus ATCC 43300 were cultured at 37 °C in MHB medium to the log-phase. Then, the diluted cells (1 × 10^8 CFU/mL) were exposed to NZX with final concentration of 1 × , 2 × , 4 × and 8 × MIC in the 48-well plates for 2 h at 37 °C. After incubation, NZX were removed by diluting 1:1000 with MHB medium. Viable counts were determined immediately after drug reconstruction and at 1–2 h interval for at least 10 h. PAE determination was calculated as PAE (h) = T-C, where T is the time (h) that required to increase by tenfold for the drug-treated viable count from the moment of drug reconstruction and C is the time (h) required to increase by tenfold for cell density without treatment. The experiments were conducted in triplication.

[4] = test system: S. aureus E48; test: Post antibiotic effect (PAE); format: cell-based, Staphylococcus aureus; conditions: 2 h exposure at 1 × to 8 × MIC, 1 × 10^8 CFU/mL, triplicate
Procedure: as §3

[5] = test system: S. aureus ATCC 25923; test: Cell membrane permeability, PI staining by flow cytometry; format: cell-based, Staphylococcus aureus
Procedure: (§4) Flow cytometry was used for the analysis of the effects of NZX on the penetration rate of the S. aureus cell membrane (Yang et al. [2019]). The S. aureus cells in mid-log phase were adjusted to 1 × 10^8 CFU/mL and the bacteria suspensions were treated with 1 × , 2 × and 4 × MIC of NZX for 2 h at 37 °C. In addition, the cell suspensions were incubated with 2 × MIC of NZX for 0 h, 0.5 h, 1 h and 2 h, respectively. After incubation, the cells were centrifuged at 4000 rpm at 4 °C for 5 min, washed twice with sterile PBS, and pellets were resuspended in 1 mL of PBS. Next, cells were stained with 50 µg/mL propidium iodide (PI) for 30 min in the dark at room temperature, and the proportion of cells with PI positive cells to the total cells were analyzed by flow-cytometry (BD, USA). Lincomycin and ceftiofur were used as positive controls and PBS as negative control. Three replicates for each treatment were conducted.

[6] = test system: S. aureus E48; test: as above; format: cell-based, Staphylococcus aureus
Procedure: as §4

[7] = test system: S. aureus ATCC 25923; test: Mouse mastitis model, bacterial counts in mammary tissues; format: in vivo; conditions: 24 h after treatment; for bacteria reduction in mammary tissues: vs PC group
Text: (§5) The 7 to 8-weeks old ICR mice (80 females, 40 males) were housed in independent ventilated cages, and feed with autoclaved laboratory food and water. Female mice in heat were put into the cage of males (females:males, 2:1) overnight and checked for vaginal plugs at the following morning to induce pregnancy. ICR-lactating mice were used at 6 to 8 days after the birth of the offspring. The mouse mastitis model was established as previously described (Li et al. [2017]). Mice were randomly divided into nine groups: NC group (uninfected group), PC group (infected but without treatment), NZX groups (25, 50, 100, 200 and 400 μg/gland, respectively), lincomycin group (100 μg/gland), and ceftiofur group (100 μg/gland). Each experimental group has six independent experiments with three mice. Specially, the pups were removed 1 h before the intramammary injection of both L4 (on the left) and R4 (on the right) abdominal mammal glands. A 100 μL of S. aureus strains (1 × 10^6 CFU/mL) was administrated to mice in PC, NZX, lincomycin and ceftiofur groups, and the same volume of sterile physiological saline was administrated to mice in NC group. Glands of 3 h post-infection were injected with sterile physiological saline, NZX, lincomycin, or ceftiofur. The mice were euthanized after the treatment for 24 h, and their mammary glands were dissected, weighed, and homogenized. The animal experiments were performed according to the Animal Care and Use Committee of the Feed Research Institute, Chinese Academy of Agricultural Sciences (Permit Number: AEC-CAAS-20090609) in accordance with the Guidelines for Animal Experimentation.
(§6) After mouse sacrifice, one part of mammary tissue was taken for bacterial count, and the other part was used for the histopathological analysis. Specifically, tissues were aseptically collected immediately from the dead mice, weighted, homogenized with sterile physiological saline (1:1, W:V). Next, the homogenates were serially diluted (ten-fold dilutions) in physiological saline, plated on MHA plate, and then cultured overnight at 37 °C. The bacterial number on each plate was counted and the results were expressed as Log10 CFU per gram of mammary tissues. In addition, mammary tissues were fixed in 4% paraformaldehyde, then embedded in paraffin, cut into 5 μm sections, and later stained by hematoxylin–eosin (H&E). The stained sections were observed under a light microscope (× 200) for pathological morphology and scoring of mammary tissues (Schmidt et al. [1992]).

[8] = test system: S. aureus ATCC 43300; test: as above; format: in vivo; conditions: 24 h after treatment, vs PC group
Text: as §5, §6

[9] = test system: S. aureus E48; test: as above; format: in vivo; conditions: 3 h post-infection, 24 h after treatment, vs PC group
Text: as §5, §6

[10] = 2 × MIC, range over 0, 0.5, 1 and 2 h
[11] = 2 h, range over 1 × MIC, 2 × MIC and 4 × MIC
[12] = range over 25 ~ 400 μg/gland intramammary

SMILES: CO/N=C(\C(=O)N[C@@H]1C(=O)N2C(C(=O)O)=C(CSC(=O)c3ccco3)CS[C@H]12)c1csc(N)n1 [Ceftiofur]
- MPC [1]: 234.24 µM
- MPC [2]: 5.49 µM
- mean PAE range [3]: 1.40 to 2.29 h
- mean PAE range [4]: 1.30 to 2.10 h
- percentage of PI-positive cells [5, 10]: 1.35–4.31%
- percentage of PI-positive cells [5, 11]: 1.55–3.42%
- percentage of PI-positive cells [6, 10]: 2.61–23.53%
- percentage of PI-positive cells [6, 11]: 8.56–21.1%
- bacteria reduction in mammary tissues ([7]; 100 μg/gland intramammary): 6.99 Log10 CFU/g
- bacteria reduction in mammary tissues ([8]; 100 μg/gland intramammary): 4.82 Log10 CFU/g
- bacteria reduction in mammary tissues ([9]; 100 μg/gland intramammary): 5.70 Log10 CFU/g

SMILES: CCC[C@@H]1C[C@@H](C(=O)N[C@@H]([C@H]2O[C@H](SC)[C@H](O)[C@@H](O)[C@H]2O)[C@@H](C)O)N(C)C1 [Lincomycin]
- MPC [1]: > 1111.04 µM
- MPC [2]: > 1111.04 µM
- mean PAE range [3]: 0.94 to 1.52 h
- mean PAE range [4]: 2.02 to 3.27 h
- percentage of PI-positive cells [5, 11]: 0.45 to 0.63%
- percentage of PI-positive cells [6, 10]: 0.13–2.61%
- percentage of PI-positive cells [6, 11]: 0.08 to 0.09%
- bacteria reduction in mammary tissues ([7]; 100 μg/gland intramammary): 5.23 Log10 CFU/g
- bacteria reduction in mammary tissues ([9]; 100 μg/gland intramammary): 7.37 Log10 CFU/g

SMILES: CC[C@H](C)[C@@H]1NC(=O)[C@H](CO)NC(=O)[C@H](CCCCN)NC(=O)[C@@H]2CSSC[C@@H](C(=O)N[C@@H](Cc3ccc(O)cc3)C(=O)O)NC(=O)[C@H](CCCCN)NC(=O)[C@@H]3CSSC[C@H](NC(=O)[C@H](CCC(N)=O)NC(=O)[C@H]([C@@H](C)CC)NC(=O)[C@H](CC(=O)O)NC(=O)[C@H](CC(=O)O)NC(=O)[C@H](CCC(=O)O)NC(=O)[C@H](CO)NC(=O)[C@H](Cc4c[nH]c5ccccc45)NC(=O)[C@@H]4CCCN4C(=O)CNC(=O)[C@H](CC(N)=O)NC(=O)[C@@H](NC(=O)CNC(=O)[C@H](Cc4ccccc4)NC(=O)CN)CSSC[C@H](NC(=O)[C@H](Cc4ccc(O)cc4)NC(=O)CNC(=O)CNC(=O)[C@H](CCCCN)NC(=O)[C@H](Cc4ccc(O)cc4)NC(=O)CNC(=O)[C@H](CCCCN)NC1=O)C(=O)N[C@@H](C)C(=O)N[C@@H](CCCNC(=N)N)C(=O)NCC(=O)NCC(=O)N[C@@H](Cc1ccccc1)C(=O)N[C@@H](C(C)C)C(=O)N3)C(=O)N[C@@H](Cc1c[nH]cn1)C(=O)N[C@@H](CC(N)=O)C(=O)N[C@@H](Cc1c[nH]cn1)C(=O)N2 [NZX] (H-GFGCNGPWSEDDIQCHNHCKSIKGYKGGYCARGGFVCKCY-OH; disulfide 4-30, 15-37, 19-39; N-terminus and C-terminus assumed)
- MPC [1]: 3.68 µM
- MPC [2]: 1.47 µM
- mean PAE range [3]: 1.67 to 3.34 h
- mean PAE range [4]: 1.14 to 3.60 h
- percentage of PI-positive cells [5, 10]: 1.93 to 54.06%
- percentage of PI-positive cells [5, 11]: 12.9–48.0%
- percentage of PI-positive cells [6, 10]: 2.61 to 72.93%
- percentage of PI-positive cells [6, 11]: 25.6–70.3%
- bacteria reduction in mammary tissues ([7]; 100 μg/gland intramammary): 4.73 Log10 CFU/g
- bacterial loads in mammary tissues ([7]; 400 μg/gland intramammary): eliminated
- bacteria reduction in mammary tissues ([7]; range over 25–400 μg/gland intramammary): 3.35–11.09 Log10 CFU/g
- bacteria reduction in mammary tissues ([8]; 100 μg/gland intramammary): 3.47 Log10 CFU/g
- bacteria reduction in mammary tissues ([8]; 400 μg/gland intramammary): 8.81 Log10 CFU/g
- bacteria reduction in mammary tissues [8, 12]: 0.66 ~ 8.81 Log10 CFU/g
- bacteria reduction in mammary tissues ([9]; 100 μg/gland intramammary): 8.34 Log10 CFU/g
- bacteria reduction in mammary tissues [9, 12]: 0.77–8.34 Log10 CFU/g
